# US20130190251A1, “METHOD FOR PREDICTING THE RESPONSIVENESS TO CHEMOTHERAPY” (priority 2010, published 2013)
# Entries after “also recorded” stand apart in the source; their conditions may differ.
# What was measured:
# Type in all cases: cell-based
# [1] = system: K562-doxorubicin sensitive cells; assay: Analysis of drug resistance by DIOC2 efflux, K562 sensitive; settings: cisplatin 2.5 μg/ml, DIOC2 50 ng/ml, 30 min at 37° C., FACS
# Experimental: (§1) FIG. 6. Acquisition of drug resistance of myelocytic leukemia cell line K562 by doxorubicin. Analysis of inhibition by cisplatin of DIOC2 incorporation in myelocytic leukemia K562 cell line. Drug resistance is mediated by ABC transporters such as P-glycoprotein (P-gp) K562 cells were incubated with DIOC2 with or without cisplatin, and the fluorescence of DIOC2 incorporated in cells was assessed by FACS. In K562-doxorubicin sensitive cells, high fluorescence of DIOC2 is observed because of the lack of efflux. No effect of cisplatin is observed consistent with an absence of ABC transporter-mediated drug resistance.
# (§2) The assay is based on the efflux of fluorescent P-gp substrate DiOC2 (3-ethyl-2-[3-(3-ethyl-2(3H)-benzoxazolylidene)-1-propenyl]benzoxazolium iodide) in doxorubicin-resistant cells, which can be inhibited by cisplatin. This efflux is absent in doxorubicin-sensitive cells resulting in an accumulation of DIOC2. DIOC2 fluorescence is measured by flow cytometry. Briefly, K562 at 1×10^6 cellules/ml were treated by cisplatin (2.5 μg/ml) in the presence of DIOC2 (50 ng/ml) for 30 min at 37° C. The cells are analyzed by flow cytometry.
# [2] = system: K562-doxorubicin resistant cells; assay: Analysis of drug resistance by DIOC2 efflux, K562 resistant; settings: cisplatin 2.5 μg/ml, DIOC2 50 ng/ml, 30 min at 37° C., FACS
# Experimental: as §1, §2
# [3] = system: HL-60 cells resistant to daunorubicin (HL60R); assay: Apoptosis by mitochondrial depolarization after DiOC6 labeling, HL60R; settings: 15-hour incubation, gliotoxin 1 mg/ml or p21 peptide 50 mM
# Experimental: (§3) FIG. 7. The p21 peptide restores apoptosis in daunorubicin-resistant HL60 cells. HL60S and HL60R were incubated overnight with the p21 peptide (50 mM) or with gliotoxin (1 mg/ml). After a 15-hour incubation, the effect of the p21 peptide on the percentage of apoptotic HL60 cells was measured by mitochondrial depolarization after DiOC6 labeling and by DNA fragmentation after propidium iodide labeling. Data are means±SEM of 5 independent experiments.
# (§4) Apoptosis in HL-60 cells sensitive to daunorubicin (HL60S) was compared to apoptosis in HL-60 cells resistant to daunorubicin (HL60R). Apoptosis was induced either by gliotoxin that triggers apoptosis by targeting the mitochondria or the p21 peptide. The p21 peptide corresponds to residues 141 to 160 of p21 fused to the cell penetrating peptide RYIRS. HL60S and HL60R were incubated overnight with the p21 peptide (50 mM) or with gliotoxin (1 mg/ml). After a 15-hour incubation, the effect of the p21 peptide on the percentage of apoptotic HL60 cells was measured by mitochondrial depolarization after DiOC6 labeling and by DNA fragmentation after propidium iodide labeling (FIG. 7).
# [4] = system: HL-60 cells sensitive to daunorubicin (HL60S); assay: Apoptosis by DNA fragmentation after propidium iodide labeling, HL60S; settings: 15-hour incubation, gliotoxin 1 mg/ml or p21 peptide 50 mM
# Experimental: as §3, §4
# [5] = system: HL-60 cells resistant to daunorubicin (HL60R); assay: Apoptosis by DNA fragmentation after propidium iodide labeling, HL60R; settings: 15-hour incubation, gliotoxin 1 mg/ml or p21 peptide 50 mM
# Experimental: as §3, §4
# [6] = system: HL-60 cells sensitive to daunorubicin (HL60S); assay: Apoptosis by mitochondrial depolarization after DiOC6 labeling, HL60S; settings: 15-hour incubation, gliotoxin 1 mg/ml or p21 peptide 50 mM
# Experimental: as §3, §4
Compound,effect on fluorescence of DIOC2 incorporated in cells [1],effect on DIOC2 efflux (fluorescence of DIOC2 incorporated in cells) [2],mitochondria depolarization in HL60R (percentage of apoptotic HL60 cells) [3],DNA fragmentation in HL60S (percentage of apoptotic HL60 cells) [4],DNA fragmentation in HL60S (percentage of apoptotic HL60 cells) ([4]; listed as gliotoxin),DNA fragmentation in HL60R (percentage of apoptotic HL60 cells) [5],mitochondria depolarization in HL60S (percentage of apoptotic HL60 cells) [6]
N.N.[Cl][Pt][Cl] [cisplatin],No effect,efflux which was reversed,,,,,
"CN1C(=O)[C@]23CC4=CC=C[C@H](O)[C@H]4N2C(=O)[C@@]1(CO)SS3 [Gliotoxin, gliotoxin]",,,no effect on HL60R,triggers mitochondria depolarization and DNA fragmentation in HL60S,induces apoptosis in HL60S,no effect on HL60R,
p21 peptide: residues 141 to 160 of p21 fused to the cell penetrating peptide RYIRS (KRRQTSMTDFYHSKRRLIFSRYIRS; Synthetic peptide based on residues 141 to 160 of p21 fused to the RYIRS tag),,,low but significant mitochondria depolarization,,,induces DNA fragmentation in HL60R more potently than in HL60S; also recorded: inducing DNA fragmentation in HL60R more potently than in HL60S,more modest effect
